The source of these data is US20080161583A1, “Epimerization methodologies for recovering stereoisomers in high yield and purity” (priority 2006, published 2008).

A short description of the data set: Solubility of an epimer in a solvent at the epimerization temperature (saturated slurry, filtered sample, HPLC assay). Particulars: saturated slurry in denatured ethanol (2B-3), organic solvent or mixture, thermodynamic from solid. It counts as physicochemical. On the procedure: The solubility of a first epimer in a solvent may be determined as follows. Sampling syringes and saturated slurry samples are pre-heated (or pre-chilled) to the desired epimerization temperature, e.g., 65 C or 70 C in some embodiments. The syringe is preheated (or pre-chilled) to the same temperature in a vessel containing only the solvent and the syringe. The syringes may be 5 ml disposable syringes. The saturated slurry samples are prepared by combining the solvent under investigation and enough of the purified first epimer to ensure that at least some precipitate is present so that the sample slurry is saturated. A purified epimer refers to an epimer having a purity of at least 85% by weight with respect to the total weight of epimers, preferably at least 90% by weight, more preferably at least 95% by weight. When both the sample and the syringe are at the desired temperature, 1.5 ml samples are quickly drawn into the syringe. The sampling syringes desirably acquire samples through a suitable filter to avoid bringing solids into the syringe. A 25 mm, 0.45 micron PTFE disk filter is suitable. 1 ml of each sample is blown down and then diluted in 10 ml of a solvent in which the epimer is fully soluble such as methanol. HPLC analysis is then performed to determine the amount of epimer in the diluted sample. […]

Values after ≈ are worked out from the molar mass of the structure shown.

Turning to `CC1(C)COC2(CC[C@H](CC(C(=O)O)c3ccc(S(C)(=O)=O)c(Cl)c3)C2)OC1` (some centres unmarked) [R,R epimer], the solubility (65 C) was found to be 23.2 mg/mL (≈ 53.9 mM) and the solubility (70 C) was determined as 27.1 mg/mL (≈ 62.8 mM).

For orientation: solubility means the concentration that dissolves in the medium under given conditions.
